Results reported in PMC11207953, “Phytochemical Investigation of Polyphenols from the Aerial Parts of Tanacetum balsamita Used in Transylvanian Ethnobotany and Parallel Artificial Membrane Permeability Assay” (Plants, 2024).

Key:
[1] = design: method as in PMID 29182998; conditions: isolated from Tanacetum parthenium; cited from earlier work
[2] = Parallel artificial membrane permeability assay for the blood–brain barrier (PAMPA-BBB), coupled with UHPLC-DAD; format: in vitro ADME; conditions: constituent measured within T. balsamita 50% (v/v) ethanolic extract (TbE), donor pH 7.4, acceptor pH 7.4, 37 °C, Pe in cm/s, n = 9, read-out: logPe PAMPA-BBB (n = 9) (converted)
Description: (§1) The ability of the compounds in T. balsamita extract (TbE and TbW) to cross biological membranes of the gastrointestinal (GI) tract and the blood–brain barrier (BBB) by passive diffusion was investigated using the PAMPA model. The coupling of this assay with UHPLC separation allowed the rapid simultaneous investigation of the membrane permeability of the compounds present in the extract (Figure 3). […] Due to the artificial nature of the membrane used in the assay, only passive transport mechanisms can occur, unlike in cell-based assays. This is particularly important in the case of plant extracts due to their complexity, as the evaluation of results obtained by different co-existing mechanisms (e.g., active transport, or metabolism) can be challenging. Furthermore, no significant differences in effective permeabilities are observed in the PAMPA, whether assessed with single compounds or mixtures. […]
(§2) After incubation, sandwich plates were separated, and the concentrations of each compound in the starting donor solution and in the acceptor and donor wells were determined in triplicate by chromatographic peak areas derived from the UHPLC-DAD method described above. UV spectra and chromatograms were recorded at 200–400 nm, and the chromatograms acquired at the UV absorption maxima of each compound were used for data evaluation. […]

[3] = Parallel artificial membrane permeability assay for the gastrointestinal tract (PAMPA-GI), coupled with UHPLC-DAD; format: in vitro ADME; conditions: constituent measured within T. balsamita 50% (v/v) ethanolic extract (TbE), donor pH 6.8, acceptor pH 7.4, 37 °C, Pe in cm/s, n = 9, read-out: logPe PAMPA-GI (n = 9) (converted)
Description: as §1, §2

Row | Papp at 4 h [2] [×10⁻⁶ cm/s] | Papp at 4 h [3] [×10⁻⁶ cm/s] | Structure (SMILES) | permeability in the PAMPA-BBB model (in words) [1]
1 | 34.7 | 17.8 | O=c1cc(-c2ccc(O)cc2)oc2cc(O)cc(O)c12 [Compound 86, apigenin] | good permeability
2 |  |  | COc1c(O)cc2oc(-c3ccc(O)c(O)c3)c(OC)c(=O)c2c1O [axillarin] | good permeability
3 |  |  | COc1ccc(-c2oc3cc(OC)c(OC)c(O)c3c(=O)c2OC)cc1O [casticin] | good permeability
4 |  |  | COc1ccc(-c2cc(=O)c3c(O)c(OC)c(O)c(OC)c3o2)cc1 [nevadensin] | good permeability
5 |  |  | COc1cc(-c2cc(=O)c3c(O)c(OC)c(O)c(OC)c3o2)ccc1O [sudachitin] | good permeability
